Here are results for three substances from US20210283215A1, “BACTERIOTHERAPY AGAINST PROPRIONIBACTERIUM ACNES FOR THE TREATMENT OF ACNE” (The Regents of the University of California, priority 2018, published 2021).

This assay has as its system C. acnes C2. The assay can be described thus: Inhibition of C. acnes C2 growth, 72 h culture. Format: cell-based. The conditions noted are these: C. acnes C2, 72 h culture.

Consider “PSMβ4: phenol soluble modulin beta peptide of S. capitis E12, SEQ ID NO: 9443, individually synthesized (MTKLAEAIANAVKAGQDQDWAKLGTSIVGIAENGISLLGKVFGF; listed as Staphylococcus capitis)”, for which the “concentration inhibiting growth of C. acnes” value is 125 µg/mL.
With “PSMβ6: phenol soluble modulin beta peptide of S. capitis E12, SEQ ID NO: 9447, individually synthesized (MEKLFDAIRNTVDAGINQDWTKLGTSIVDIVDNGVKVISKFIGA; listed as Staphylococcus capitis)” the figure was 62 µg/mL.
The result for “PSMβ1: phenol soluble modulin beta peptide of S. capitis E12, SEQ ID NO: 9437, individually synthesized (MTKLAEAIANTVKAGQDHDWAKLGTSIVGIAENGIGLLGKVFGF; listed as Staphylococcus capitis)” reads 62 µg/mL.
